What is called melting point is the temperature, or range, at which the solid turns liquid.

`CC(=O)N1CCN=C1Nc1c(Br)cccc1Br`: the melting point is 182 to 185 °C.
To `CC(C)(C)NCC(O)c1ccc(F)cc1` (stereo not drawn) belongs 117 °C; to `CCNC(=O)c1c(C)cccc1[Si](C)(C)C`, 64 to 66 °C.
To `NC(=O)N(O)CCNC(=O)c1ccc(Oc2ccccc2)cc1` belongs 185 to 186 °C; to `COc1cc2c(=O)n(NS(C)(=O)=O)c(=O)[nH]c2cc1[N+](=O)[O-]`, greater than 280 °C; to `CC(C)N1C(=O)c2ccc(Cl)nc2C1=O`, 122 to 123 °C.
To `O=c1c(-c2ccc(NS(=O)(=O)c3ccccc3)cc2)coc2cc(O)c(O)cc12` belongs 285 to 286 °C; to `COc1cc2c(cc1O)CCN(Cc1cccc(O)c1)C2`, 177 to 178 °C.
The molecule `O=S1(=O)c2cccc3cccc(c23)N1CCCN1CC=C(c2ccc(O)cc2)CC1` displayed a melting point of 198 °C.
To `CC(=O)Nc1ccc(C(=O)C=CN(C)C)cc1` belongs 185 to 186 °C; to `CCCNC(=O)N1CCC(O)(Cc2c3c(nn2CC)c(N)nc2ccccc23)CC1`, 208 to 210 °C; to `COC(=O)c1cccc2oc(SCCCN3CCN(CC(=O)Nc4c(C(C)C)cccc4C(C)C)CC3)nc12`, 132 to 133 °C.
For `CN1CCN(CC2CCN(c3ccc(Nc4ncc5ccc(-c6cccc(S(=O)(=O)NC(C)(C)C)c6)n5n4)cc3)CC2)CC1`, the melting point lay within 233 to 235 °C.
The figure for `COc1cc2c(c(C(C)C)c1OC)CC(C)C(Br)=C2` (stereo not drawn) is 71 to 72 °C; for `COc1ccc(C(=O)Oc2ccc(C(=O)O)cc2F)cc1C12CC3CC(CC(C3)C1)C2` it is 258 to 260 °C.
With `COc1cc(/C=C/c2nc3ccccc3c(=O)o2)ccc1OC(C)=O`, the melting point lay in the range of 185 to 186 °C.
To `CC(=O)Oc1cc2c(c(OC(C)=O)c1)C1CCC3(C)C(O)CCC3C1CC2` (stereo not drawn) belongs 210 to 211 °C.
To `Cc1nc(Cl)c([N+](=O)[O-])c(N(c2ccccc2)c2ccccc2)n1` belongs 128 to 130 °C; to `O=C(OCc1snc(Cl)c1Cl)c1ccccc1`, 79 to 80 °C; to `Cc1nnc2n1-c1ccc(Br)cc1C(c1ccccc1Cl)=CC2`, 250 to 252 °C.
To `O=C(CCc1ccccc1)N[C@H](Cc1ccc(C(F)(F)F)c(F)c1)[C@@H](O)c1ccc(F)cc1` (racemic) belongs 126 to 127 °C; to `O=C1C=C(NC(=O)C(=O)c2cn(Cc3ccc(Cl)cc3)c3cc(Cl)ccc23)CO1`, 255 to 257 °C; to `CSc1nc2c(cc1Cl)N(C(=O)Nc1cccnc1)CC2`, 266 to 267 °C.
`O=C1CCC(Br)C(=O)N1` (stereo not drawn) came in with a melting point of 76 to 83 °C.
`COC(C)(C)C(=O)C(Oc1ccc(Cl)cc1Cl)n1cncn1` (stereo not drawn) showed a melting point of 53 to 54 °C.
The figure for `CC(C)OC(=O)c1ccc2c(c1)ncn2-c1cccc(-c2cccnc2Cl)c1` is 147 to 150 °C; for `COc1ncc(F)c2n[nH]c(=S)n12` it is 166 °C; for `Nc1ccsc1C(=O)c1ccccc1` it is 100 to 102 °C.
The molecule `CC(=O)OC1COc2ccc3ncccc3c2C1` (stereo not drawn) returned a melting point of 125 to 127 °C.
The figure for `CCc1cccc(C)c1CNc1nc(OC)cc2c1nc(C)n2C` is 106 to 107 °C; for `CN1C(=N)N(C)C(=Cc2c[nH]c3ccccc23)C1=O` it is 232 to 233 °C.
With `COc1ccc2cc(-c3ccc(O)cc3)[nH]c(=O)c2c1`, the melting point came to 255 °C.
The figure for `Cn1c(-c2cnn(-c3c(Cl)cc(C(F)(F)F)cc3Cl)n2)nc(C#N)c1C#N` is 154 to 156 °C; for `COc1cc(NC(=O)OC(C)(C)C)c(NC(=O)CC(=O)c2cccc(-n3ccnc3)c2)cc1-c1ccc(F)cc1C` it is 99 to 102 °C.
The figure for `Cc1ncc(CCCCC(=O)O)s1` is 75 °C; for `O=S(=O)(Cl)c1ccc(-c2cccc(F)c2)s1` it is 75 to 84 °C.
In turn, `CCNc1ccc2c(c1)N1CCN=C1S2` had a melting point of 239 to 246 °C.
The figure for `COC1(OC)CCC(O)(c2ccc(F)cc2)CC1` is 94 to 99 °C; for `Cc1c(C)c(C)c(S(=O)(=O)NC(Cc2nc3ccc(C=CCNC4=NCCN4)cc3c(=O)[nH]2)C(=O)O)c(C)c1C` (stereo not drawn) it is 131 to 135 °C.
The figure for `CS(=O)CC(=O)c1cc(C(C)(C)C)c(O)c(C(C)(C)C)c1` (stereo not drawn) is 144 to 145 °C.
To `CCn1c(=O)n(OCc2ccccc2)c(=O)c2cc(F)c(F)cc21` belongs 133 to 135 °C; to `COc1ccccc1[C@@]1(O)[C@H](O)CC(c2ccccc2)(c2ccccc2)[C@@H]2CN(C(=O)Cc3cccc4ccccc34)C[C@@H]21` (racemic), 188 to 190 °C; to `O=C(O)CC(NC(=O)OCc1ccccc1)C(=O)CNS(=O)(=O)CCc1ccccc1` (stereo not drawn), 100 to 101 °C.
On to `CSc1nccc(Oc2ccc(NC(=O)c3cc(F)cc(N4CCCC4)c3)c3ccccc23)n1`, for which the melting point lay in the range of 180 to 181 °C.
To `CCOC(=O)N1CCC2(CC1)Oc1ccccc1C2n1cccc1` (stereo not drawn) belongs 132 to 133 °C; to `O=C(CCC[C@H](O)c1ccc(F)cc1)N1C(=O)OC[C@@H]1c1ccccc1`, 39.7 °C; to `CC(C)(C)NS(=O)(=O)c1ccccc1`, 77 to 78 °C.
Molecule `Cc1ccc2c(OS(=O)(=O)C(F)(F)F)cc(=O)oc2c1` yielded a melting point of 95 to 96 °C.
To `CCCCC(CC)COC(=O)CSc1cc2c(cc1SCC(=O)OCC(CC)CCCC)C(=O)c1cc3ccccc3cc1C2=O` (stereo not drawn) belongs 75 to 80 °C; to `CCOC(=O)C(=O)N1CCCc2c1ccc1[nH]c(=O)c(=O)[nH]c21`, greater than 285 °C; to `CC(=O)NCC12CC(c3ccccc31)c1ccccc12`, 184 to 186 °C.
In turn, `COc1ccc(C2=NN(c3ccccc3)C(c3ccc(NC(=S)Nc4ccccc4)cc3)C2)cc1` (stereo not drawn) showed a melting point of 153 to 156 °C.
In turn, `Nc1sccc1C(=O)c1ccc(Cl)cc1` yielded a melting point of 178 to 180 °C.
The figure for `O=C(NO)c1ccc(C(=O)NOCc2cccc3ccccc23)cc1` is 192 to 194 °C; for `Cc1cccc(-c2[nH]c(C(C)C)nc2-c2cccc(-c3cccc(F)c3)c2)n1` it is 140 to 142 °C; for `CC(=O)NC(Cc1ccccc1)C(=O)NC(C)C(=O)O` (stereo not drawn) it is 128 to 132 °C.
The figure for `C=CCOc1cc2c(cc1CC=C)N(CC=C(C)C)C(=O)CC2` is 86 to 88 °C; for `COc1cc(-n2nc(C)[nH]c2=O)c(F)cc1Cl` it is 193 to 195 °C; for `CC(C)(C)C(OC(=O)Cl)=C(Oc1ccc(Cl)cc1)n1cncn1` it is 159 to 161 °C.
`Clc1ccc(-c2ncn(CC3CC3)c2-c2ccncc2)cc1Cl`: the melting point came out at 146 °C.
The figure for `O=P(c1ccccc1)(c1ccccc1)N1C[C@@H](P(c2ccccc2)c2ccccc2)C[C@H]1CP(c1ccccc1)c1ccccc1` is 130 °C.
The figure for `O=S(=O)(NC(=NO)Nc1ccc(Cl)cc1)c1cc(S(=O)(=O)c2ccccc2)cs1` is 195 °C; for `Cc1ccc2c(c1)C(c1ccccc1)CC(N1CCN(C3CC(c4ccccc4)c4cc(C)ccc4O3)CC1)O2` (stereo not drawn) it is 241 °C; for `CCC(=O)COc1ccc(CC2SC(=O)NC2=O)cc1` (stereo not drawn) it is 142 to 146 °C.
The figure for `CCCn1nc2c(N)nc3ccccc3c2c1CCN(C(N)=O)c1ccc(F)c(F)c1` is 211 to 212 °C.
Consider `NC(=O)Nc1nc2c(s1)-c1c(cnn1-c1ccccc1)CC2`, for which the melting point lay within 321 to 325 °C.
The figure for `CC(NC(=O)n1c(=O)nc(N(C)C)n1C)c1ccccc1` (stereo not drawn) is 103 °C; for `CC(=O)N1CCC(C)(C)c2cc(/C(C)=C/c3ccc(C(=O)O)cc3)ccc21` it is 200 to 202 °C; for `COc1cccc(-c2cccc3c2C(=O)OC(C)(C)O3)n1` it is 130 to 132 °C.
To `CC1(C)CCC(C)(C)c2cc(C#Cc3ccc(S(C)(=O)=O)cc3)ccc21` belongs 153 to 155 °C.
The figure for `O=C(NC(Cc1ccccc1)C(=O)O)c1ccc2cc(Oc3ccccc3)ccc2c1` (stereo not drawn) is 179 to 180 °C; for `CC1(C)CCCNc2ccc([N+](=O)[O-])cc21` it is 99 °C.
Regarding `CN1CC(=O)N2[C@H](c3ccc4occc4c3)c3[nH]c4ccccc4c3C[C@@H]2C1=O`, the melting point lay in the range of 291 to 293 °C.
To `CCOC(=O)c1c(N2CCN(C(=O)c3cccs3)CC2)c2cc(Cl)cnc2n(Cc2ccccc2)c1=O` belongs 197 °C.
To `O=C(CCCN1CCC(c2ccc(Cl)cc2)CC1)c1ccc(CN2CCCC2)cc1` belongs 63 to 65 °C.
For `CCOc1cc2c(O)cc(C)nc2nc1C`, the melting point fell in the range of 281 to 284 °C.
To `CCN(c1ccc(Cl)cc1C(N)=S)S(=O)(=O)c1ccc(C)cc1` belongs 180 to 182 °C; to `CCCc1c(Cc2ccccc2)ccc2c(=O)cc(CCC(=O)O)oc12`, 160 to 161 °C.
To `CC(=O)OCc1nnc2n1-c1sc(Cl)cc1C(c1ccccc1Cl)=NC2` belongs 191 to 193 °C.
The figure for `CN(C(=O)c1cc(C(F)(F)F)cc(C(F)(F)F)c1)C(CCCC(=O)O)Cc1c[nH]c2ccccc12` (stereo not drawn) is 152 to 157 °C; for `O=S(=O)(c1[nH]c(-c2ccc(Cl)cc2)c(S(=O)(=O)C(F)(F)F)c1Br)C(F)(F)F` it is 115 to 135 °C.
With `OC1CSC(Oc2cccc(-c3ccccn3)c2)C(O)C1O` (stereo not drawn), the melting point was in the range of 138 to 139 °C.
The figure for `C=Cc1c(F)c(N2CCN(CC)CC2)c(F)c2c1c(=O)c(C(=O)O)cn2C1CC1` is 198 to 200 °C; for `CCCCc1nc(Cl)c(C(=O)OC)n1Cc1ccc2oc(-c3ccccc3-c3nnn[nH]3)c(Br)c2c1` it is 110 to 112 °C.
To `O=c1ccc(Br)cn1CC1(O)CCN(Cc2ccccc2F)CC1` belongs 184 to 186 °C; to `CCOC(=O)CC1(c2ccccc2)CNC(=O)C1` (stereo not drawn), 49 to 51 °C.
As to `CCCN(CCC)c1c([N+](=O)[O-])cc(S(=O)(=O)N(C)C(=O)OC)cc1[N+](=O)[O-]`, the melting point was 90 to 94 °C.
The figure for `COc1ccc(Br)c2c1C(=O)CC2` is 125 to 128 °C.

These data come from a melting point compilation (Tetko et al.; mined from patent text by program, amines drawn as free bases though some values may be those of a salt).
